This is an account of results in ChEMBL document CHEMBL1201862, “PubChem BioAssay data set” (2004).

Some test systems named below: 786-0; BT-549; HCT-116; HOP-62; HT-29; IGROV-1; KM12; NCI-H226; NCI-H522; OVCAR-5; OVCAR-8; RPMI-8226; SF-295; SK-MEL-2; SK-MEL-5; SK-OV-3; SNB-19; U-251.
Holding throughout (test): growth of human tumour cells (NCI), 48 h

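Method: 48-hour compound exposure of cells in 96-well plates, five concentrations, linear interpolation of endpoints. Abbreviation: GI50, concentration required for 50% inhibition of growth.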 Calls of active or inactive are those of the source. Cut-off read from the data, not from the text of the source: active = GI50 up to about 1.1 µM and inactive = higher. Some results are limits rather than exact numbers.

On to `COP(=O)(OC)c1ccc(NCc2cc(O)ccc2O)cc1`, for which the GI50 in the test on 786-0 was 25.2 µM (inactive); with BT-549, 17.9 µM (inactive); in the test on HCT-116, 24.8 µM (inactive); in the test on HOP-62, 35.8 µM (inactive); in the test on HT-29, 24.8 µM (inactive); in the test with IGROV-1, 30.3 µM (inactive). Besides, the GI50 was 19.9 µM (inactive) in the test on KM12; 38.9 µM (inactive) in the test on NCI-H226; 17.3 µM (inactive) in the test with NCI-H522; 23.9 µM (inactive) in the test on OVCAR-5; 26.8 µM (inactive) in the test on OVCAR-8; 19.5 µM (inactive) in the test with RPMI-8226. For the same compound, the GI50 with SF-295 is 17.3 µM (inactive); in the test with SK-MEL-2 it was 46.6 µM (inactive); in the test on SK-MEL-5, 22.1 µM (inactive); with SK-OV-3, > 100 µM (inactive); with SNB-19, 37.8 µM (inactive); in the test on U-251, 30.6 µM (inactive).
In the case of `CC(=O)O[C@H]1CC[C@@]2(C)C(=CC[C@@H]3[C@@H]2CC[C@](C)(c2nnc(C)o2)[C@H]3CC#N)C1`, the GI50 with 786-0, with BT-549, with HCT-116, in the test with HOP-62, with HT-29 and in the test on IGROV-1 was > 100 µM (inactive) each time. The GI50 with KM12, in the test with NCI-H226, in the test with NCI-H522, in the test with OVCAR-5, in the test with OVCAR-8 and in the test on RPMI-8226 was > 100 µM (inactive) each time. Also, the GI50 in the test with SF-295, with SK-MEL-2, in the test on SK-MEL-5, with SK-OV-3, in the test with SNB-19 and in the test with U-251 was > 100 µM (inactive) each time.
For `Nc1ccc(-c2nnc(-c3c(Cl)c(Cl)c(Cl)c(Cl)c3-c3nc4cc(C(=O)c5ccccc5)ccc4[nH]3)o2)cc1`, the GI50 is 17.1 µM (inactive) with 786-0; 24.6 µM (inactive) with BT-549; 20.6 µM (inactive) in the test on HCT-116; 21.6 µM (inactive) with HOP-62; 20.5 µM (inactive) with HT-29; 28.5 µM (inactive) in the test on IGROV-1. Further, the GI50 was 27.9 µM (inactive) in the test with KM12; 18 µM (inactive) in the test with NCI-H226; 13.5 µM (inactive) in the test with NCI-H522; 37.9 µM (inactive) in the test on OVCAR-5; 43.8 µM (inactive) in the test on OVCAR-8; 14.8 µM (inactive) in the test with RPMI-8226. For the same compound, the GI50 is 19.5 µM (inactive) with SF-295; 24.5 µM (inactive) in the test on SK-MEL-2; 11.1 µM (inactive) with SK-MEL-5; 26.1 µM (inactive) with SK-OV-3; 27.2 µM (inactive) in the test with SNB-19; 18.1 µM (inactive) with U-251.
In the case of `CC1/C=C/C=C/CC/C=C/C=C/C=C/C=C/C(OC2OC(C)C(O)C(N)C2O)CC2OC(CC(O)C(O)CCC(O)CC(O)CC(O)CC(=O)OC(C)C(C)C1O)CC(O)C2C(=O)O` (stereo not drawn), the GI50 with 786-0 was 17 µM (inactive); in the test on BT-549 it was 17 µM (inactive); with HCT-116, 17.2 µM (inactive); in the test with HOP-62, 19.4 µM (inactive); with HT-29 it was 17.3 µM (inactive); in the test on IGROV-1 it was 17.6 µM (inactive). Moreover, the GI50 with KM12 is 26.8 µM (inactive); in the test with NCI-H226, 13.5 µM (inactive); in the test with NCI-H522 it was 19.3 µM (inactive); in the test on OVCAR-5, 17.9 µM (inactive); in the test with OVCAR-8, 21.6 µM (inactive); in the test with RPMI-8226 it was 22.6 µM (inactive). Also, the GI50 in the test on SF-295 was 22.3 µM (inactive); in the test with SK-MEL-2, 28.6 µM (inactive); in the test on SK-MEL-5 it was 19.7 µM (inactive); in the test with SK-OV-3, 23.2 µM (inactive); with SNB-19, 18.3 µM (inactive); in the test with U-251, 17.4 µM (inactive).
As for `CC(=O)c1cc(CC2Cc3cc4c(cc3C2=O)CCC4)cc2c1CCC2` (stereo not drawn), the GI50 with 786-0 is 80 µM (inactive); in the test with BT-549 it was 15.4 µM (inactive); in the test on HCT-116, 26.1 µM (inactive); in the test on HOP-62, > 100 µM (inactive); in the test on HT-29 it was 48.2 µM (inactive); with IGROV-1, > 100 µM (inactive). Besides, the GI50 with KM12 was 37.2 µM (inactive); with NCI-H226, 44.9 µM (inactive); in the test on NCI-H522 it was 36.9 µM (inactive); in the test with OVCAR-5, > 100 µM (inactive); in the test on OVCAR-8, 46.8 µM (inactive); with RPMI-8226 it was 10.7 µM (inactive). Moreover, the GI50 in the test on SF-295 was 20.4 µM (inactive); in the test with SK-MEL-2 it was 71.1 µM (inactive); in the test on SK-MEL-5, 14 µM (inactive); with SK-OV-3, 62.2 µM (inactive); in the test with SNB-19 it was 78 µM (inactive); in the test on U-251, 33.7 µM (inactive).
For `COC(=O)[C@H](Cc1ccccc1)NC(=O)N1CCCN(C(=O)N[C@@H](Cc2ccccc2)C(=O)OC)CCCN(C(=O)N[C@@H](Cc2ccccc2)C(=O)OC)CCC1`, the GI50 is 17.5 µM (inactive) in the test on 786-0; 31.1 µM (inactive) in the test with BT-549; 20.2 µM (inactive) with HCT-116; 16.6 µM (inactive) with HOP-62; 16.8 µM (inactive) with HT-29; 16.4 µM (inactive) in the test on IGROV-1. Further, the GI50 in the test on KM12 was 28.9 µM (inactive); in the test on NCI-H226, 16.5 µM (inactive); in the test with NCI-H522 it was 18.9 µM (inactive); in the test on OVCAR-5 it was 15.7 µM (inactive); in the test on OVCAR-8, 20.7 µM (inactive); in the test on RPMI-8226 it was 32.1 µM (inactive). In addition, the GI50 in the test on SF-295 was 17.8 µM (inactive); in the test on SK-MEL-2 it was 15 µM (inactive); with SK-MEL-5 it was 19.4 µM (inactive); with SK-OV-3 it was 22.8 µM (inactive); with SNB-19 it was 27.7 µM (inactive); in the test on U-251, 16.7 µM (inactive).
With `CCC(Nc1ncnc2nc[nH]c12)C(=O)O` (stereo not drawn), the GI50 with 786-0, in the test with BT-549, with HCT-116, in the test on HOP-62, in the test on HT-29 and in the test on IGROV-1 was > 100 µM (inactive) in each case. Moreover, the GI50 in the test with KM12, in the test with NCI-H226, with NCI-H522, in the test with OVCAR-5, in the test on OVCAR-8 and in the test with RPMI-8226 was > 100 µM (inactive) in each case. In addition, the GI50 with SF-295, in the test with SK-MEL-2, in the test on SK-MEL-5, in the test with SK-OV-3, with SNB-19 and in the test with U-251 was > 100 µM (inactive) throughout.
Consider `Cc1ccc(/C=C/c2n[nH]c(N/N=C/c3ccc4c(c3)OCO4)nc2=O)cc1`, for which the GI50 in the test with 786-0 is 14.4 µM (inactive); in the test with BT-549 it was 17.9 µM (inactive); in the test with HCT-116, 21.1 µM (inactive); with HOP-62, 19 µM (inactive); with HT-29 it was 24 µM (inactive); in the test on IGROV-1 it was 20.2 µM (inactive). For the same compound, the GI50 in the test on KM12 is 17.3 µM (inactive); in the test on NCI-H226 it was 26.9 µM (inactive); with NCI-H522, 28.8 µM (inactive); in the test on OVCAR-5, > 100 µM (inactive); in the test with OVCAR-8, 15.5 µM (inactive); in the test on RPMI-8226 it was 67.8 µM (inactive). Further, the GI50 in the test on SF-295 was 33.7 µM (inactive); in the test on SK-MEL-2, 30.8 µM (inactive); with SK-MEL-5, 30.1 µM (inactive); in the test with SK-OV-3, 30.5 µM (inactive); in the test with SNB-19 it was 18.5 µM (inactive); in the test on U-251, 17.6 µM (inactive).
As to `Cc1ccc([N+](=O)[O-])cc1S(=O)(=O)Nc1ccc(C2=NN(S(=O)(=O)c3cc([N+](=O)[O-])ccc3C)C(c3cccs3)C2)cc1` (stereo not drawn), the GI50 in the test with 786-0 is 44.2 µM (inactive); in the test with BT-549, 38.6 µM (inactive); with HCT-116 it was 26.5 µM (inactive); in the test with HOP-62 it was 30.1 µM (inactive); with HT-29 it was 38.4 µM (inactive); in the test on IGROV-1 it was 46.3 µM (inactive). Moreover, the GI50 was 30.1 µM (inactive) with KM12; 52.7 µM (inactive) in the test on NCI-H226; 26.1 µM (inactive) in the test with NCI-H522; 74 µM (inactive) with OVCAR-5; 50.2 µM (inactive) in the test with OVCAR-8; 21.9 µM (inactive) in the test on RPMI-8226. The GI50 in the test on SF-295 was 21.2 µM (inactive); in the test with SK-MEL-2, 25.3 µM (inactive); in the test with SK-MEL-5 it was 29 µM (inactive); with SK-OV-3 it was 24.5 µM (inactive); with SNB-19, 45.2 µM (inactive); in the test on U-251, 30.1 µM (inactive).
Take `COc1ccccc1C1(c2c(OC)c(=O)c2=O)SCCCS1`: the GI50 with 786-0 is > 100 µM (inactive); with BT-549 it was 31.6 µM (inactive); in the test with HCT-116 it was > 100 µM (inactive); in the test with HOP-62, > 100 µM (inactive); in the test with HT-29 it was > 100 µM (inactive); in the test on IGROV-1 it was 47.2 µM (inactive). Besides, the GI50 in the test on KM12 is > 100 µM (inactive); with NCI-H226, 85.7 µM (inactive); in the test on NCI-H522 it was 27.4 µM (inactive); in the test with OVCAR-5, 34.4 µM (inactive); in the test with OVCAR-8, 67.1 µM (inactive); with RPMI-8226, 32 µM (inactive). Also, the GI50 with SF-295 is 67 µM (inactive); with SK-MEL-2 it was > 100 µM (inactive); in the test on SK-MEL-5, > 100 µM (inactive); in the test on SK-OV-3, > 100 µM (inactive); with SNB-19, 74 µM (inactive); in the test on U-251, > 100 µM (inactive).
In the case of `CC12OC(=O)[C@@]3(O)CCC4C(C[C@H]5O[C@]56CC=CC(=O)[C@]46C)C45OC[C@H]6C(=O)O[C@@H]1C[C@@]6(C)[C@H](C4=O)C23O5` (stereo partly drawn), the GI50 in the test on 786-0 was 0.659 µM (active); in the test with BT-549, 0.818 µM (active); with HCT-116 it was 1.33 µM (inactive); in the test on HOP-62, 2.57 µM (inactive); in the test on HT-29 it was 2.11 µM (inactive); with IGROV-1, 1.24 µM (inactive). Moreover, the GI50 in the test on KM12 is 1.85 µM (inactive); in the test on NCI-H226 it was 2.7 µM (inactive); in the test on NCI-H522 it was 0.269 µM (active); in the test with OVCAR-5, 3.34 µM (inactive); with OVCAR-8, 0.955 µM (active); in the test with RPMI-8226, 0.308 µM (active). For the same compound, the GI50 was 4.25 µM (inactive) in the test with SF-295; 3.01 µM (inactive) with SK-MEL-2; 1.53 µM (inactive) with SK-MEL-5; 5.53 µM (inactive) with SK-OV-3; 3.85 µM (inactive) in the test on SNB-19; 1.99 µM (inactive) with U-251.
